From patent US11345666B2, “Phenyl and pyridinyl substituted imidazoles as modulators of RORγT” (Janssen Pharmaceutica NV, priority 2018, dated 2022) come the findings set out here.

Test [1] deals with IL-17 production by CD4 T cells. In words: Human Th17 assay. It is filed as cell-based. The conditions noted are these: 72 h, IL-17 in supernatant after 3 days. An excerpt: The human Th17 assay tests the effect of RORγt modulatory compounds on IL-17 production by CD4 T cells under conditions which favor Th17 differentiation. Total CD4^+ T cells were isolated from the peripheral blood mononuclear cells (PBMC) of healthy donors using a CD4^+ T cell isolation kit II, following the manufacturer's instructions (Miltenyi Biotec). Cells were resuspended in a medium of RPMI-1640 supplemented with 10% fetal bovine serum, penicillin, streptomycin, glutamate, and β-mercaptoethanol and were added to 96-well plates at 1.5×10^5 per 100 μL per well. 50 μL of compound at titrated concentrations in DMSO were added into each well at final DMSO concentration at 0.2%. Cells were incubated for 1 hour, then 50 μL of Th17 cell differentiation medium was added to each well. The final concentrations of antibodies and cytokines (R&D Systems) in differentiation medium were: 3×10^6/mL anti-CD3/CD28 beads (prepared using human T cell activation/expansion kit, Miltenyi Biotec), 10 μg/mL anti-IL4, 10 μg/mL anti-IFNγ, 10 ng/mL IL1β, 10 ng/mL IL23, 50 ng/mL IL6, 3 ng/mL TGFβ and 20 U/mL IL2. Cells were cultured at 37° C. and 5% CO2 for 3 days. Supernatants were collected and the accumulated IL-17 in culture was measured by using MULTI-SPOT® Cytokine Plate following manufacture's instruction (Meso Scale Discovery). The plate was read using Sector Imager 6000, and IL-17 concentration was extrapolated from the standard curve. The IC50s were determined by GraphPad.

In the next test the target is full-length human RORγt (Homo sapiens (Human), UniProt P51449). In words: RORγt (full-length human) reporter assay, conditions A or B. The class given is cell-based. The note with it: for IC50: HEK293T cells, read-out: RORγt (FL) Reporter Assay A or B, IC50; for inhibition at 2 µM: 2 μM compound concentration (**); for inhibition at 6 µM: read-out: RORγt (FL) Reporter Assay A or B, % inhibition @ 6 μM, 6 μM compound concentration. Put shortly: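 HEK293T cells transiently co-transfected (PEI) with GAL4-DBD–RORγt, GAL4-firefly luciferase and CMV-Renilla reporters; condition A 35,000 cells/well, 170.5 ng DNA/well; condition B 8750 cells/well, 42.6 ng DNA/well.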
A general note: A reporter such as luciferase makes a cellular process visible.

Where [2] appears, read: read-out: RORγt (FL) Reporter Assay A or B, % inhibition.
The mark [3] stands for this setting: 0.22 μM compound concentration (******), read-out: RORγt (FL) Reporter Assay A or B, % inhibition.
[4] abbreviates: 0.67 μM compound concentration (****), read-out: RORγt (FL) Reporter Assay A or B, % inhibition.

The IC50 is the concentration that gives 50% inhibition.

Like-named read-outs stand apart in the source and are kept apart here. Marks after values point to notes of the source that are not given here. Bounds are passed on as bounds.

Sequence of full-length human RORγt (P51449 other isoform, or with tags, fused parts or gaps): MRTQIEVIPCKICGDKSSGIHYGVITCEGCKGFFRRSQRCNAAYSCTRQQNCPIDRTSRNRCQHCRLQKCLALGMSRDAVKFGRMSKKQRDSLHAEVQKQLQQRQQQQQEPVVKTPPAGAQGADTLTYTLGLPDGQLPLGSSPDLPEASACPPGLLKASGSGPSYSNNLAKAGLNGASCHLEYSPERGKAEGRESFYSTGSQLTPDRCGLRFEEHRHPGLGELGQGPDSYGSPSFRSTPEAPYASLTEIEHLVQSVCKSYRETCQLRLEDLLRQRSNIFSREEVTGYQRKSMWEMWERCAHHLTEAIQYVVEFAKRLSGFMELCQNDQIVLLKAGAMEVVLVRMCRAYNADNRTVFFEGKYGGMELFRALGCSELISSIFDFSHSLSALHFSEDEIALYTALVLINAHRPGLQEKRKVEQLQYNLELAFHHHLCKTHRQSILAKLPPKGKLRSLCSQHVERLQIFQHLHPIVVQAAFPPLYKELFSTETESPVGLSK

Take `CCc1nc(C(=O)NC[C@H]2CC[C@H](S(C)(=O)=O)CC2)c(Cl)n1-c1ccc(CC(C)C(F)(F)F)cc1OC` (single isomer, unassigned) [Example 6, 5-Chloro-2-ethyl-1-((1S*)-2-methoxy-4-(3,3,3-trifluoro-2-methylpropyl)phenyl)-N-(((1r,4S)-4-(methylsulfonyl)cyclohexyl)methyl)-1H-imidazole-4-carboxamide]: the IC50 came out at 2 nM in test [1] and 6 nM on full-length human RORγt. Further, the “RORγt (FL) Reporter Assay A or B, % inhibition” value at full-length human RORγt (0.67 μM compound concentration (****)) is given as 99**** %.
Regarding `CCc1nc(C(=O)NC[C@H]2CC[C@H](S(C)(=O)=O)CC2)c(C)n1-c1ccc(CC(C)C(F)(F)F)cc1OC` (single isomer, unassigned) [Example 7], the IC50 in test [1] was 7 nM; at full-length human RORγt, 12 nM. The inhibition at 0.22 µM on full-length human RORγt (read-out: RORγt (FL) Reporter Assay A or B, % inhibition, 0.22 μM compound concentration (******)) was 91%.
Take `CCc1nc(C(=O)NC[C@H]2CC[C@H](S(C)(=O)=O)CC2)c(Cl)n1-c1ncc(CC(C)(C)C(F)(F)F)cc1OC(F)F` [Example 2, 5-Chloro-1-(3-(difluoromethoxy)-5-(3,3,3-trifluoro-2,2-dimethylpropyl)pyridin-2-yl)-2-ethyl-N-((4-(methylsulfonyl)cyclohexyl)methyl)-1H-imidazole-4-carboxamide]: the IC50 in test [1] is 85 nM; at full-length human RORγt, 12 nM. For the same compound, the inhibition at 1 µM on full-length human RORγt (1 μM compound concentration (***), read-out: RORγt (FL) Reporter Assay A or B, % inhibition) stood at 84%.
With `CCc1nc(C(=O)NC[C@H]2CC[C@H](S(C)(=O)=O)CC2)c(Cl)n1-c1ccc(N[C@H](C)C(F)(F)F)cc1OC` [Example 3, 5-Chloro-2-ethyl-1-(2-methoxy-4-(((R)-1,1,1-trifluoropropan-2-yl)amino)phenyl)-N-(((1r,4R)-4-(methylsulfonyl)cyclohexyl)methyl)-1H-imidazole-4-carboxamide], the 50% inhibitory concentration (IC50) was found to be 31 nM in test [1] and 36 nM at full-length human RORγt. Moreover, at full-length human RORγt (setting [2]), the inhibition at 2 µM is 101%.
For `CCc1nc(C(=O)NC[C@H]2CC[C@H](S(C)(=O)=O)CC2)c(F)n1-c1ccc(N[C@H](C)C(F)(F)F)cc1OC` [Example 12, 2-Ethyl-5-fluoro-1-(2-methoxy-4-(((R)-1,1,1-trifluoropropan-2-yl)amino)phenyl)-N-(((1r,4R)-4-(methylsulfonyl)cyclohexyl)methyl)-1H-imidazole-4-carboxamide], the IC50 in test [1] is 220 nM; on full-length human RORγt, 160 nM. For the same compound, the inhibition at 6 µM at full-length human RORγt came out at 109%.
On to `CCc1nc(C(=O)NC[C@H]2CC[C@H](S(C)(=O)=O)CC2)c(Cl)n1-c1ccc(CCC(F)(F)F)cc1F` [Example 22, 5-Chloro-2-ethyl-1-(2-fluoro-4-(3,3,3-trifluoropropyl)phenyl)-N-(((1r,4r)-4-(methylsulfonyl)cyclohexyl)methyl)-1H-imidazole-4-carboxamide], for which the IC50 in test [1] was 42 nM; on full-length human RORγt, 15 nM. Also, the inhibition at 0.22 µM on full-length human RORγt (setting [3]) was determined as 38%.
For the compound `[2H]C([2H])([2H])Oc1cc(CC(C)(C)C(F)(F)F)ccc1-n1c(CC)nc(C(=O)NC[C@H]2CC[C@H](S(C)(=O)=O)CC2)c1C#N` [Example 27, 5-Cyano-2-ethyl-1-(2-(methoxy-d3)-4-(3,3,3-trifluoro-2,2-dimethylpropyl)phenyl)-N-(((1r,4r)-4-(methylsulfonyl)cyclohexyl)methyl)-1H-imidazole-4-carboxamide], the IC50 in test [1] was 13 nM; on full-length human RORγt it was 18 nM. Also, the inhibition at 0.67 µM on full-length human RORγt (setting [4]) is 97%.
For the compound `CCc1nc(C(=O)NC[C@H]2CC[C@H](S(C)(=O)=O)CC2)c(C#N)n1-c1ccc(CC(C)(C)C(F)(F)F)cc1OC(F)F` [Example 36, 5-Cyano-1-(2-(difluoromethoxy)-4-(3,3,3-trifluoro-2,2-dimethylpropyl)phenyl)-2-ethyl-N-(((1r,4r)-4-(methylsulfonyl)cyclohexyl)methyl)-1H-imidazole-4-carboxamide], the values for the IC50 (in test [1]; on full-length human RORγt) were 8 nM and 13 nM, respectively. The inhibition at 2 µM on full-length human RORγt (setting [2]) was 101%.
In the case of `CCc1nc(C(=O)NC[C@]2(O)CC[C@@H](S(C)(=O)=O)CC2)c(Cl)n1-c1c(F)cc(CC(C)C)cc1F` [Example 83, 5-Chloro-1-(2,6-difluoro-4-isobutylphenyl)-2-ethyl-N-(((1s,4s)-1-hydroxy-4-(methylsulfonyl)cyclohexyl)methyl)-1H-imidazole-4-carboxamide], the values for the IC50 (in test [1]; on full-length human RORγt) were over 6000 nM and 120 nM, respectively. The inhibition at 2 µM at full-length human RORγt (setting [2]) amounted to 23%.
Consider `CCc1nc(C(=O)NC[C@]2(O)CC[C@@H](S(C)(=O)=O)CC2)c(Cl)n1-c1ccc(CC(C(F)(F)F)C(F)(F)F)cc1F` [Example 100, 5-Chloro-2-ethyl-1-(2-fluoro-4-(3,3,3-trifluoro-2-(trifluoromethyl)propyl)phenyl)-N-(((1s,4s)-1-hydroxy-4-(methylsulfonyl)cyclohexyl)methyl)-1H-imidazole-4-carboxamide], for which the IC50 in test [1] amounted to 58 nM; on full-length human RORγt it was 6.7 nM. The inhibition at 0.22 µM on full-length human RORγt (setting [3]) is 100%.
For `CCc1nc(C(=O)NC[C@]2(O)CC[C@@H](S(C)(=O)=O)CC2)c(C)n1-c1ccc(CC(C(F)(F)F)C(F)(F)F)cc1F` [Example 109, 2-Ethyl-1-(2-fluoro-4-(3,3,3-trifluoro-2-(trifluoromethyl)propyl)phenyl)-N-(((1s,4s)-1-hydroxy-4-(methylsulfonyl)cyclohexyl)methyl)-5-methyl-1H-imidazole-4-carboxamide], the IC50 turned out to be 79 nM in test [1] and 22 nM on full-length human RORγt. In addition, at full-length human RORγt (setting [4]), the inhibition at 0.67 µM is 97%.
For `CCc1nc(C(=O)NC[C@]2(O)CC[C@@H](S(C)(=O)=O)CC2)c(C#N)n1-c1ccc(CC(C)(C)C(F)(F)F)cc1OC(F)(F)F` [Example 111, 5-Cyano-2-ethyl-N-(((1s,4s)-1-hydroxy-4-(methylsulfonyl)cyclohexyl)methyl)-1-(4-(3,3,3-trifluoro-2,2-dimethylpropyl)-2-(trifluoromethoxy)phenyl)-1H-imidazole-4-carboxamide], the IC50 in test [1] worked out at 69 nM. On full-length human RORγt, the IC50 is 86 nM and the inhibition at 6 µM was determined as 99%.
